Counter-ions that a name gives are not always drawn. Like-named read-outs stand apart in the source and are kept apart here.
Key:
human hepG2 cells = test: In vitro toxicity in human hepG2 cells (AlamarBlue viability); assay type: cell-based
Description: For viability assays, cells were seeded in white 96-well Nunclon plates at a density of 20,000 cells/well and left overnight to adhere before experiments were conducted. Zn chelators dissolved in DMSO were added to white 96-well plates containing 20000 HepG2 cells/well at concentrations ranging from 1 to 1×10^−6 mM (max DMSO concentration never exceeded 1%) and incubated for 24 hours at 37° C. After 24 hours, AlamarBlue® cell viability reagent (Thermo Fisher, Carlsbad, USA) was added (10% final concentration) and incubated for 4 hours at 37° C.

VIM-2 = VIM-2 (Escherichia coli, UniProt Q5U7L7); assay type: biochemical; settings: purified VIM-2, PD-10 column
Description: The eluent used was Chelex-treated HEPES 50 mM buffer, pH 7.5. […] In all experiments, 16 aliquots of 250 μL were taken from the PD-10 column runsout and enzyme activity was analysed. Enzyme activity was measured by adding Nitrocefin as a reporter substrate (final concentration of 50 μM).
To investigate if more extreme time-dependent and concentration-dependent conditions could restore enzyme activity, aliquots having final concentrations of 30 nM column-treated enzyme and 1000 μM Zn^2+ on ice and at room temperature over prolonged time.

[1] = test system: resistant gram-negative MBL-based bacteria; test: MICx: adjuvant concentration giving carbapenem MIC ≤ 2 mg/L; assay type: cell-based; settings: lowest concentration of compound X that results in a MIC value of ≤ 2 mg/L for carbapenem antibiotics
Description: (§1) • Plate bacterial strain(s) on appropriate media: • Gram-negative bacteria with ESBLs or carbapenemases: green agar plates with 100 mg/L ampicillin • Gram-negative bacteria without β-lactamases: green agar plates • Gram-positive bacteria (Staphylococci and Enterococci): blood agar plates • Incubate o.n. at 37° C. […] (Should be used within 15 min of preparation). • Dilute the 0.5 McFarland suspension 1:100 into MH broth. […] Plate 10 μl of the dilution on MH agar plates (×2). Incubate o.n. at 37° C., count the colonies and calculate the final CFU/ml inoculum in the plate by multiplying the average number of colonies with 10000 and divide by 2. The final inoculum should be between 3-7×10^5 CFU/ml. • Add 50 μl of the prepared bacterial suspension to each well in the microtiter plate except negative growth control. Preparation of Compounds/Antibiotics • Calculate the desired concentration-range and volume of the compounds/antibiotics in the assay. […] Dilute the stock solution in MH broth. Make subsequent 2-fold dilutions in MH broth of the desired concentrations if a concentration range is to be tested (remember the extra dilution factor in the assay plate). Always include extra volume for pipetting. Take into consideration stock solutions that are made in buffers that have an effect on bacterial growth (e.g. DMSO).

neurons = settings: Canzoniero et al.; cited from earlier work
[2] = test system: K. pneumoniae 50732159 (No MBL); test: Microbroth dilution MIC of meropenem with/without inhibitor; assay type: cell-based; settings: inhibitor 63 mg/L
Description: as §1

[3] = test system: P. aeruginosa 50692172 (NDM-1); test: as above; assay type: cell-based; settings: inhibitor 63 mg/L
Description: as §1

[4] = test system: P. aeruginosa 50808021 (No MBL); test: as above; assay type: cell-based; settings: inhibitor 63 mg/L
Description: as §1

[5] = test system: P. aeruginosa K34-7 (VIM-2); test: Microbroth dilution MIC of carbapenem with/without inhibitor; assay type: cell-based; settings: inhibitor 63 mg/L
Description: as §1

[6] = test system: K. pneumoniae K66-45 (NDM-1); test: as above; assay type: cell-based
Description: as §1

C. freundii (NDM) = test: Microbroth dilution MIC of meropenem ± 25 mg/L inhibitor; assay type: cell-based
Description: (§2) • Plate bacterial strain(s) on appropriate media: • Gram-negative bacteria with ESBLs or carbapenemases: green agar plates with 100 mg/L ampicillin • Gram-negative bacteria without β-lactamases: green agar plates • Gram-positive bacteria (Staphylococci and Enterococci): blood agar plates • Incubate o.n. at 37° C. Day 2: Prepare the Bacterial Inoculum: • Prepare a 0.5 McFarland suspension of bacteria in 0.85% NaCl. (Should be used within 15 min of preparation). • Dilute the 0.5 McFarland suspension 1:100 into MH broth. Check the inoculum by diluting the prepared bacterial suspension 1:100 (10 μl bacterial suspension+990 μl 0.85% NaCl). Plate 10 μl of the dilution on MH agar plates (×2). Incubate o.n. at 37° C., count the colonies and calculate the final CFU/ml inoculum in the plate by multiplying the average number of colonies with 10000 and divide by 2. The final inoculum should be between 3-7×10^5 CFU/ml. • Add 50 μl of the prepared bacterial suspension to each well in the microtiter plate except negative growth control. Preparation of Compounds/Antibiotics • Calculate the desired concentration-range and volume of the compounds/antibiotics in the assay. […] Dilute the stock solution in MH broth. Make subsequent 2-fold dilutions in MH broth of the desired concentrations if a concentration range is to be tested (remember the extra dilution factor in the assay plate). Always include extra volume for pipetting. Take into consideration stock solutions that are made in buffers that have an effect on bacterial growth (e.g. DMSO).

P. stuartii (NDM-1) = test: as above; assay type: cell-based
Description: as §2

K. pneumoniae (VIM) = test: as above; assay type: cell-based
Description: as §2

E. cloacae (VIM) = test: as above; assay type: cell-based
Description: as §2

P. mirabilis (NDM-1) = test: as above; assay type: cell-based
Description: as §2

E. coli (VIM-1) = test: as above; assay type: cell-based
Description: as §2

K. pneumoniae (NDM-7) = test: as above; assay type: cell-based
Description: as §2

C. freundii (NDM-1) = test: as above; assay type: cell-based
Description: as §2

[7] = test system: M. morganii (OXA48+ NDM-1); test: as above; assay type: cell-based
Description: as §2

K. pneumoniae (NDM) = test: as above; assay type: cell-based; settings: K. pneumoniae NDM (several strains)
Description: as §2

P. stuartii (NDM) = test: as above; assay type: cell-based
Description: as §2

K. pneumoniae K66-45 = assay type: cell-based; settings: inhibitor 25 mg/L; MEM 1 mg/L
Description: After plating and grown overnight at 37° C., only single colonies, ignoring any touching the edges of the plate, were counted.
10^9 CFU K66-45 (Mueller-Hinton broth, no selection) was plated and grown overnight, 37° C. Only single colonies, ignoring any touching the edges of the plate, were counted.

[8] = Solution stability on storage, measured indirectly by MIC; assay type: physicochemical; settings: solution stored at 2-8° C.; MIC at 25 mg/L inhibitor
Text: P. aeruginosa harboring VIM-2 and K. pneumonia bearing NDM-1 was used as two indicator strains.

[9] = In vivo toxicity in healthy mice; design: species or system Balb/c mice; settings: ± SEM
Description: Female Balb/c mice (4 weeks old, approximately 20 g, Charles River, L'Arbresle, France) acclimatized 4 days in the animal facility before initiation of experiments. […] Individual weights were followed four days a week. Relative weight was calculated as the ratio between the weight of the day and the weight of the first day. The protocol for experiments in mice was approved by the University of Lyon Animal Ethics Committee. Toxicity experiments were performed by Antineo (www.antineo.fr).

Compound: c1ccc(CN(CCN(Cc2ccccn2)Cc2ccccn2)Cc2ccccn2)nc1 [TPEN, N,N,N′,N′-tetrakis(2-pyridylmethyl) ethylenediamine, reference compound]
- IC50 (human hepG2 cells; human hepG2 cells, 24 hours, AlamarBlue, 8 replicates, read-out: IC50): 7.1 µM
- IC50 (human hepG2 cells; human hepG2 cells, read-out: IC50h): 7 µM
- irreversibility of VIM-2 inhibition (VIM-2): irreversibly inhibited
- MICx [1]: 15 µM
- EC50 (neurons): ~5 µM
- Meropenem activity in presence of inhibitor [2]: ≤0.064 mg/L
- Meropenem activity in presence of inhibitor [3]: ≤0.5 mg/L
- Meropenem activity in presence of inhibitor [4]: 64 mg/L
- Meropenem activity in presence of inhibitor [5]: 1 mg/L
- Meropenem activity in presence of inhibitor ([6]; inhibitor 63 mg/L, K. pneumoniae K66-45 NDM-1): ≤0.5 mg/L

Compound: C[C@@H](N)C(=O)N[C@H](C)C(=O)NCCc1ccc(NC(=O)c2ccc(CN(Cc3ccccn3)Cc3ccccn3)nc2)cc1 [Example 195, N-(4-(2-((R)-2-((R)-2-aminopropanamido)propanamido)ethyl)phenyl)-6-((bis(pyridin-2-ylmethyl)amino)methyl)nicotinamide hydrochloride]
- IC50 (human hepG2 cells; Homo sapiens, HepG2, 24 h): > 1000 µM
- MIC meropenem + 25 mg/L Example 195 (C. freundii (NDM)): 0.06 µg/mL
- MIC meropenem + 25 mg/L Example 195 (P. stuartii (NDM-1)): 0.125 µg/mL
- MIC meropenem + 25 mg/L Example 195 (K. pneumoniae (VIM)): 0.125 µg/mL
- MIC meropenem + 25 mg/L Example 195 (E. cloacae (VIM)): <0.03 µg/mL
- MIC meropenem + 25 mg/L Example 195 (P. mirabilis (NDM-1)): 0.125 µg/mL
- MIC meropenem + 25 mg/L Example 195 (E. coli (VIM-1)): <0.03 µg/mL
- MIC meropenem + 25 mg/L Example 195 (K. pneumoniae (NDM-7)): <0.03 µg/mL
- MIC meropenem + 25 mg/L Example 195 (C. freundii (NDM-1)): 0.125 µg/mL
- MIC meropenem + 25 mg/L Example 195 [7]: 1 µg/mL
- MIC meropenem + 25 mg/L Example 195 (K. pneumoniae (NDM)): 0.06 µg/mL
- MIC meropenem + 25 mg/L Example 195 (P. stuartii (NDM)): 0.25 µg/mL
- RF - no of colonies (K. pneumoniae K66-45): 163 colonies
- storage time after which the activity was absent [8]: 8 months
- storage time at which a loss of activity was observed [8]: 5 months
- Relative weight of mice ([9]; Day 1, treatment 4 mg/kg intraperitoneally): 100 ± 0%
- Relative weight of mice ([9]; Day 8, treatment 8 mg/kg): 98 ± 5%
- Relative weight of mice ([9]; Day 16, treatment 16 mg/kg): 103 ± 3%
- Relative weight of mice ([9]; Day 22, treatment 32 mg/kg): 103 ± 3%
- Relative weight of mice ([9]; Day 29, treatment 64 mg/kg): 106 ± 6%
- Relative weight of mice ([9]; Day 36, treatment 120 mg/kg): 110 ± 8%
- Relative weight of mice ([9]; Day 43, no injection, reporting): 110 ± 8%
- MIC ([6]; Klebsiella pneumoniae, read-out: MIC of MEM in the presence of inhibitor): 0.125 µg/mL

Source: US11649222B2, “Compounds” (UNIVERSITETET I OSLO, priority 2016, dated 2023)
